This is an account of results in US6949381B2, “Immortalized human skin cell lines and novel serum-free medium useful for the production thereof” (Nestec S.A., priority 1995, dated 2005).

What all share (type): cell-based, Human
The subject of assay [1] is collagenase (type I). Description: Collagenase (type I) expression after phorbol ester treatment. The note with it: immortalized keratinocytes treated with phorbol esters.
Assay [2] deals with normal keratinocytes. The assay is described as follows: Keratinocyte growth in serum-free media (cell count, FIG. 1). The settings on record: serum free medium. From the text: FIG. 1 compares the growth (in terms of cell number) of non-immortalized DKO-NR keratinocytes in three different media, i.e., NR-3, epinephrine-supplemented modified MCDB 153 and MCDB 153 after 6 days.
• 1) Characterization of Keratinocytes Growth in Serum-free Media: primary cell cultures were cultivated in modified MCDB 153 [Boyce et al., J. Tissue Cult. Meth., 9:83-93 (1985); and Pittlekow et al., J. Invest. Dermatol., 86:410-417, 1986] and NR-3 media.
FIG. 1 comprises cell growth in NR-3 and epinephrine-supplemented modified MCDB 153 (keratinocyte growth medium) after 6 days. The modified MCDB 153 medium refers to modified MCDB 153. Keratinocytes were harvested in trypsin/EDTA (0.05%/0.01%) and counted by using a hemocytometer. […] In particular, the results shown in Table 2 compare the growth of keratinocytes in coated and uncoated culture plates. 100,000 keratinocytes were seeded on 3.5 cm plates containing NR-3 medium.

Assay [3] relates to melanocytes (DM2-NR, normal). Description: Induction/inhibition of melanin synthesis in melanocytes. The note with it: T-Ag expressing melanocyte lines (especially DM2-NR), comparable to normal cells.
Protocol: The melanocytes were treated with the melanogensis inducers tyrosin and theophylline and the melanogenesis inhibitor kojic acid.

With `CCCCCCCCCCCCCC(=O)O[C@@H]1[C@@H](C)[C@@]2(O)[C@@H](C=C(CO)C[C@]3(O)C(=O)C(C)=C[C@@H]23)[C@@H]2C(C)(C)[C@]12OC(C)=O` [PMA, phorbol-12-myristate-13-acetate], the “collagenase (type I) expression” value in assay [1] is reported as “increase of collagenase (type I) expression”.

`CNC[C@H](O)c1ccc(O)c(O)c1` [epinephrine]: the “growth of normal keratinocytes” value in assay [2] was “strong growth factor of normal keratinocytes”.

On to `O=c1cc(CO)occ1O` [kojic acid], for which the induction/inhibition of melanogenesis entry in assay [3] is “dose dependent”.

With `Cn1c(=O)c2[nH]cnc2n(C)c1=O` [theophylline], in assay [3], the induction/inhibition of melanogenesis entry was “dose dependent”.

Consider `N[C@@H](Cc1ccc(O)cc1)C(=O)O` [tyrosin], for which the induction/inhibition of melanogenesis result in assay [3] was “dose dependent”.
